Source: EP3375430A1, “FRAGRANCE COMPOSITIONS” (Takasago International Corporation, priority 2017, dated 2018)

Assays:
[1] = Amount of fragrance ingredients retained on paper blotter after evaporation (ethanol extraction, GC-MS); type: physicochemical
Method in brief: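 100 µL of fragrance formulation applied to paper blotters kept at 32°C open to air; at each time three blotters extracted 1 h in ethanol with methyl decanoate internal standard and analysed by GC-MS (HP-5MS, 50–280°C). Amounts averaged over triplicates and expressed as percent of time-zero level.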

[2] = Headspace concentration of fragrance ingredients over blotter (thermal desorption GC-MS); type: physicochemical; settings: fragrance TAK; after 1 hour; both control EdT1 and composition C1; Figure 2
Method in brief: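 Fragrance (100µL) applied to a 10 cm perfumers' blotter held on a 32°C hot plate, equilibrated 5 min; headspace drawn through Tenax TA tubes at 17mL/min until 280mL collected, repeated at later sampling times. Tubes thermally desorbed splitless onto HP-5MS column, GC-MS detection, mass range 35 to 350.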

In the case of `C=C(C)[C@H]1CC=C(C)CC1` [Limonene], the “amount of fragrance ingredient retained on blotter (percentage of the initial amount)” value (“amount … (percentage of the initial amount)” for short) ([1]; Table 3, fragrance TAK in C1, 15 min, 32°C) is reported as 18%, the “amount … (percentage of the initial amount)” value ([1]; Table 3, fragrance TAK in C1, 60 min, 32°C) is reported as 1% and the “amount … (percentage of the initial amount)” value ([1]; Table 3, fragrance TAK in C1, 120 min, 32°C) is reported as 1%. The “amount … (percentage of the initial amount)” value ([1]; Table 3, fragrance TAK in C1, 240 min, 32°C) was 1%, the “amount … (percentage of the initial amount)” value ([1]; Table 3, fragrance TAK in C1, 480 min, 32°C) was less than 1% and the “amount … (percentage of the initial amount)” value ([1]; Table 3, fragrance TAK in EdT1, 15 min, 32°C) was 1%. The “amount … (percentage of the initial amount)” value ([1]; Table 3, fragrance TAK in EdT1, 60 min, 32°C) was less than 1%, the “amount … (percentage of the initial amount)” value ([1]; Table 3, fragrance TAK in EdT1, 120 min, 32°C) was less than 1% and the “amount … (percentage of the initial amount)” value ([1]; Table 3, fragrance TAK in EdT1, 240 min, 32°C) was less than 1%. The “amount … (percentage of the initial amount)” value ([1]; Table 3, fragrance TAK in EdT1, 480 min, 32°C) was less than 1%, the “amount … (percentage of the initial amount)” value ([1]; Table 3, fragrance TAK in EdT1 or C1, T0, set at 100% (normalisation)) was 100% and the “amount … (percentage of the initial amount)” value ([1]; Table 4, fragrance TAK in C2, 15 min, 32°C) was 29%. The “amount … (percentage of the initial amount)” value ([1]; Table 4, fragrance TAK in C2, 480 min, 32°C) was less than 1%, the “amount … (percentage of the initial amount)” value ([1]; Table 4, fragrance TAK in EdT1, 15 min, 32°C) was 2% and the “amount … (percentage of the initial amount)” value ([1]; Table 4, fragrance TAK in EdT1, 480 min, 32°C) was less than 1%. For the same compound, the “amount … (percentage of the initial amount)” value ([1]; Table 4, fragrance TAK in EdT1 or C2, T0, set at 100% (normalisation)) was 100%, the “amount … (percentage of the initial amount)” value ([1]; Table 5, fragrance TAK in C3, 15 min, 32°C) was 19% and the “amount … (percentage of the initial amount)” value ([1]; Table 5, fragrance TAK in C3, 60 min, 32°C) was less than 1%. For the same compound, the “amount … (percentage of the initial amount)” value ([1]; Table 5, fragrance TAK in C3, 120 min, 32°C) was less than 1%, the “amount … (percentage of the initial amount)” value ([1]; Table 5, fragrance TAK in C3, 240 min, 32°C) was less than 1% and the “amount … (percentage of the initial amount)” value ([1]; Table 5, fragrance TAK in C3, 480 min, 32°C) was less than 1%. For the same compound, the “amount … (percentage of the initial amount)” value ([1]; Table 5, fragrance TAK in C3, 1440 min, 32°C) was less than 1%, the “amount … (percentage of the initial amount)” value ([1]; Table 5, fragrance TAK in EdT1, 15 min, 32°C) was 1% and the “amount … (percentage of the initial amount)” value ([1]; Table 5, fragrance TAK in EdT1, 60 min, 32°C) was less than 1%. The “amount … (percentage of the initial amount)” value ([1]; Table 5, fragrance TAK in EdT1, 120 min, 32°C) was less than 1%, the “amount … (percentage of the initial amount)” value ([1]; Table 5, fragrance TAK in EdT1, 240 min, 32°C) was less than 1% and the “amount … (percentage of the initial amount)” value ([1]; Table 5, fragrance TAK in EdT1, 480 min, 32°C) was less than 1%. The “amount … (percentage of the initial amount)” value ([1]; Table 5, fragrance TAK in EdT1, 1440 min, 32°C) was less than 1%, the “amount … (percentage of the initial amount)” value ([1]; Table 5, fragrance TAK in EdT1 or C3, T0, set at 100% (normalisation)) was 100% and the “amount … (percentage of the initial amount)” value ([1]; Table 6, fragrance TAK in C4, 15 min, 32°C) was 17%. The “amount … (percentage of the initial amount)” value ([1]; Table 6, fragrance TAK in C4, 60 min, 32°C) was less than 1%, the “amount … (percentage of the initial amount)” value ([1]; Table 6, fragrance TAK in C4, 120 min, 32°C) was 1% and the “amount … (percentage of the initial amount)” value ([1]; Table 6, fragrance TAK in C4, 240 min, 32°C) was 1%. The “amount … (percentage of the initial amount)” value ([1]; Table 6, fragrance TAK in C4, 480 min, 32°C) was 1%, the “amount … (percentage of the initial amount)” value ([1]; Table 6, fragrance TAK in EdT1, 15 min, 32°C) was 1% and the “amount … (percentage of the initial amount)” value ([1]; Table 6, fragrance TAK in EdT1, 60 min, 32°C) was less than 1%. For the same compound, the “amount … (percentage of the initial amount)” value ([1]; Table 6, fragrance TAK in EdT1, 120 min, 32°C) was less than 1%, the “amount … (percentage of the initial amount)” value ([1]; Table 6, fragrance TAK in EdT1, 240 min, 32°C) was less than 1% and the “amount … (percentage of the initial amount)” value ([1]; Table 6, fragrance TAK in EdT1, 480 min, 32°C) was less than 1%. For the same compound, the “amount … (percentage of the initial amount)” value ([1]; Table 6, fragrance TAK in EdT1 or C4, T0, set at 100% (normalisation)) was 100%, the “amount … (percentage of the initial amount)” value ([1]; Table 9, fragrance COM1 in C5, T0 + 15 min) was 11.32% and the “amount … (percentage of the initial amount)” value ([1]; Table 9, fragrance COM1 in C5, T0 + 480 min) was less than 1%. For the same compound, the “amount … (percentage of the initial amount)” value ([1]; Table 9, fragrance COM1 in C5, T0 +1440 min) was less than 1%, the “amount … (percentage of the initial amount)” value ([1]; Table 9, fragrance COM1 in C6, T0 + 15 min) was 6.6% and the “amount … (percentage of the initial amount)” value ([1]; Table 9, fragrance COM1 in C6, T0 + 480 min) was less than 1%. For the same compound, the “amount … (percentage of the initial amount)” value ([1]; Table 9, fragrance COM1 in C6, T0 +1440 min) was less than 1%, the “amount … (percentage of the initial amount)” value ([1]; Table 9, fragrance COM1 in EdT2, C5 or C6, T0, set at 100% (normalisation)) was 100% and the “amount … (percentage of the initial amount)” value ([1]; Table 9, fragrance COM1 in EdT2, T0 + 15 min) was 1.33%. For the same compound, the “amount … (percentage of the initial amount)” value ([1]; Table 9, fragrance COM1 in EdT2, T0 + 480 min) was less than 1%, the “amount … (percentage of the initial amount)” value ([1]; Table 9, fragrance COM1 in EdT2, T0 +1440 min) was less than 1% and the “headspace presence of ingredient” value [2] was “lost”.
